Experimental findings from patent US11208400B2, “Substituted 6-(1H-pyrazol-1-yl)pyrimidin-4-amine derivatives and uses thereof” (Bayer Aktiengesellschaft, priority 2016, dated 2021) are described below.

Structures are written as SMILES. pIC50: −log10 of the molar value.

This assay addresses T1, human Npt2a (Homo sapiens, UniProt Q06495).
T1 construct: expressed in transfected cells
T1 sequence (Q06495 1-639): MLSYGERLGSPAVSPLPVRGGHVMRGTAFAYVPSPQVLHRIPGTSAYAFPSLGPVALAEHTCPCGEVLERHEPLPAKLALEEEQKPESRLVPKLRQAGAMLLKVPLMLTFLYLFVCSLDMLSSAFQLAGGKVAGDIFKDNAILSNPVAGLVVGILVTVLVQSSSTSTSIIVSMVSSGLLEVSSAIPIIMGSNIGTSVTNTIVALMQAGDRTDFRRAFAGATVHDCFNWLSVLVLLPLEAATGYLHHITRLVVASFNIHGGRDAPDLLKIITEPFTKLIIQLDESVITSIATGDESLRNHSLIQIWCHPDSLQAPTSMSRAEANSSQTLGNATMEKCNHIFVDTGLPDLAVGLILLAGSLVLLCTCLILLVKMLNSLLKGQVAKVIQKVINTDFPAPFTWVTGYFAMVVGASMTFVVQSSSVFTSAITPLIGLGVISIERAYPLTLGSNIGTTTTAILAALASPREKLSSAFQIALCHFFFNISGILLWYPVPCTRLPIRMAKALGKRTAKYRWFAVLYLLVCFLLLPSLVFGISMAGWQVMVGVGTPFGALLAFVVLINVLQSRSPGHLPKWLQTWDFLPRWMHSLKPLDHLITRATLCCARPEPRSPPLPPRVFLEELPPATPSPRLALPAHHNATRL
Put plainly: Npt2a activity cell based assay, membrane potential dye, CHO T-REx hNpt2a cells. The conditions noted are these: doxycycline-induced, depolarization by sodium phosphate influx, average or median values if tested more than once. The procedure, abridged:
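Cells were doxycycline-induced CHO T-REx hNpt2a, dye-loaded and pretreated 5 min at RT with 1 nM–50 μM compound in Na-free pH 7.4 buffer. IC50 was fit to the post/pre-trigger fluorescence ratio.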
For `Cc1cc(C(F)F)n(-c2cc(Nc3nn(C)c(-c4ccc(F)cc4)c3C3CC3)ncn2)n1` [Example 95, N-[4-cyclopropyl-5-(4-fluorophenyl)-1-methyl-1H-pyrazol-3-yl]-6-[5-(difluoromethyl)-3-methyl-1H-pyrazol-1-yl]pyrimidin-4-amine], the pIC50 (commonly −log10 of the IC50, conventionally taken in molar units) is 7.20. `Cc1nn(-c2cc(Nc3nn(CC4CC4)c(-c4ccc(F)cc4)c3Cl)ncn2)c(C)c1Cl` [Example 183, N-[4-chloro-1-(cyclopropylmethyl)-5-(4-fluorophenyl)-1H-pyrazol-3-yl]-6-(4-chloro-3,5-dimethyl-1H-pyrazol-1-yl)pyrimidin-4-amine] showed a pIC50 of 6.03. Take `CCc1c(Nc2cc(-n3nc(C)c(C(=O)OC(C)(C)C)c3C(F)F)ncn2)nn(C)c1-c1ccc(F)cc1` [Example 166, tert-butyl 5-(difluoromethyl)-1-(6-{[4-ethyl-5-(4-fluorophenyl)-1-methyl-1H-pyrazol-3-yl]amino}pyrimidin-4-yl)-3-methyl-1H-pyrazole-4-carboxylate]: the pIC50 was 8.05. With `CCc1c(Nc2cc(-n3nc(C)c(C(C)(C)O)c3C)ncn2)n[nH]c1-c1ccc(F)cc1` [Example 181, 2-[1-(6-{[4-ethyl-5-(4-fluorophenyl)-1H-pyrazol-3-yl]amino}pyrimidin-4-yl)-3,5-dimethyl-1H-pyrazol-4-yl]propan-2-ol] the figure was 5.82; with `COCCn1nc(-c2ccc(F)cc2)c(C)c1Nc1cc(-n2nc(C)cc2C(F)F)ncn1` [Example 527, 6-[5-(difluoromethyl)-3-methyl-1H-pyrazol-1-yl]-N-[3-(4-fluorophenyl)-1-(2-methoxyethyl)-4-methyl-1H-pyrazol-5-yl]pyrimidin-4-amine], 8.05. Regarding `CNc1ccc(-c2nn(CC3CC3)c(Nc3cc(-n4nc(C)c(Cl)c4C)ncn3)c2C)cc1` [Example 417, 6-(4-chloro-3,5-dimethyl-1H-pyrazol-1-yl)-N-{1-(cyclopropylmethyl)-4-methyl-3-[4-(methylamino)phenyl]-1H-pyrazol-5-yl}pyrimidin-4-amine], the pIC50 is 7.57. In turn, `Cc1nn(-c2cc(Nc3c(C)c(-c4ccc(C#N)cc4)nn3CC3CC3)ncn2)c2c1C(=O)CC2` [Example 365, 4-[1-(cyclopropylmethyl)-4-methyl-5-{[6-(3-methyl-4-oxo-5,6-dihydrocyclopenta[c]pyrazol-1(4H)-yl)pyrimidin-4-yl]amino}-1H-pyrazol-3-yl]benzonitrile] gave a pIC50 of 7.21.

In turn, `CCc1c(-c2ccc(F)cc2)n[nH]c1Nc1cc(-n2nc(C)cc2C)ncn1` [Example 13, 6-(3,5-dimethyl-1H-pyrazol-1-yl)-N-[4-ethyl-3-(4-fluorophenyl)-1H-pyrazol-5-yl]pyrimidin-4-amine] showed a pIC50 of 7.21.

Molecule `CCc1c(Nc2cc(-n3nc(C)c4c3CCC4(C)O)ncn2)nn(C)c1-c1ccc(F)cc1` (racemic) [Example 146, (rac)-1-(6-{[4-ethyl-5-(4-fluorophenyl)-1-methyl-1H-pyrazol-3-yl]amino}pyrimidin-4-yl)-3,4-dimethyl-1,4,5,6-tetrahydrocyclopenta[c]pyrazol-4-ol] showed a pIC50 of 6.90. The molecule `Cc1cc(C)n(-c2cc(Nc3nn(CC(F)F)c(-c4ccc(F)cc4)c3Cl)ncn2)n1` [Example 132, N-[4-chloro-1-(2,2-difluoroethyl)-5-(4-fluorophenyl)-1H-pyrazol-3-yl]-6-(3,5-dimethyl-1H-pyrazol-1-yl)pyrimidin-4-amine] gave a pIC50 of 7.41. Consider `CCc1c(Nc2cc(-n3nc(C)c(C4(O)COC4)c3C)ncn2)nn(C)c1-c1ccc(F)cc1` [Example 220, 3-[1-(6-{[4-ethyl-5-(4-fluorophenyl)-1-methyl-1H-pyrazol-3-yl]amino}pyrimidin-4-yl)-3,5-dimethyl-1H-pyrazol-4-yl]oxetan-3-ol], for which the pIC50 was 6.49. The molecule `Cc1nn(-c2cc(Nc3nn(C)c(-c4ccccc4)c3C)ncn2)c(C)c1Cl` [Example 84, 6-(4-chloro-3,5-dimethyl-1H-pyrazol-yl)-N-(1,4-dimethyl-5-phenyl-1H-pyrazol-3-yl)pyrimidin-4-amine] gave a pIC50 of 7.12. Turning to `Cc1c(-c2ccc(C#N)cc2)nn(CC2CC2)c1Nc1cc(-n2cc(C(F)(F)F)cn2)ncn1` [Example 247, 4-[1-(cyclopropylmethyl)-4-methyl-5-({6-[4-(trifluoromethyl)-1H-pyrazol-1-yl]pyrimidin-4-yl}amino)-1H-pyrazol-3-yl]benzonitrile], the pIC50 is 7.54. To `Cc1nn(-c2cc(Nc3nn(C)c(-c4ccc(F)cc4)c3C3CC3)ncn2)c2ccccc12` [Example 44, N-[4-cyclopropyl-5-(4-fluorophenyl)-1-methyl-1H-pyrazol-3-yl]-6-(3-methyl-1H-indazol-1-yl)pyrimidin-4-amine] belongs 8.27; to `Cc1nn(-c2cc(Nc3c(C)c(-c4ccc(C(F)F)nc4)nn3CC3CC3)ncn2)c(C)c1Cl` [Example 511, 6-(4-chloro-3,5-dimethyl-1H-pyrazol-1-yl)-N-{1-(cyclopropylmethyl)-3-[6-(difluoromethyl)pyridin-3-yl]-4-methyl-1H-pyrazol-5-yl}pyrimidin-4-amine], 6.92; to `Cc1c(-c2ccc(F)cc2)nn(CC2CC2)c1Nc1cc(-n2ncc3c2CN(C(=O)OC(C)(C)C)C3)ncn1` [Example 431, tert-butyl 1-(6-{[1-(cyclopropylmethyl)-3-(4-fluorophenyl)-4-methyl-1H-pyrazol-5-yl]amino}pyrimidin-4-yl)-4,6-dihydropyrrolo[3,4-c]pyrazole-5(1H)-carboxylate], 7.16.

For `Cc1nn(-c2cc(Nc3c(C)nn(-c4ccc(C#N)cc4)c3C)ncn2)c(C)c1CC(C)(C)O` [Example 301, 4-[4-({6-[4-(2-hydroxy-2-methylpropyl)-3,5-dimethyl-1H-pyrazol-1-yl]pyrimidin-4-yl}amino)-3,5-dimethyl-1H-pyrazol-1-yl]benzonitrile], the pIC50 is 7.04.

The molecule `Cc1nn(-c2cc(Nc3c(C)c(-c4ccc(F)cc4)nn3CC3CC3)ncn2)c(C)c1OC(=O)N(C)C` [Example 520, 1-(6-{[1-(cyclopropylmethyl)-3-(4-fluorophenyl)-4-methyl-1H-pyrazol-5-yl]amino}pyrimidin-4-yl)-3,5-dimethyl-1H-pyrazol-4-yl dimethylcarbamate] gave a negative logarithm of the IC50 (pIC50) of 5.80.

As to `Cc1nn(-c2cc(Nc3c(C)c(-c4ccc(F)cc4)nn3CC3CC3)ncn2)c(C)c1OCC#N` [Example 506, {[1-(6-{[1-(cyclopropylmethyl)-3-(4-fluorophenyl)-4-methyl-1H-pyrazol-5-yl]amino}pyrimidin-4-yl)-3,5-dimethyl-1H-pyrazol-4-yl]oxy}acetonitrile], the pIC50 is 7.55. `Cc1nn(-c2cc(Nc3nn(C)c(-c4ccccc4)c3Cl)ncn2)c(C)c1Cl` [Example 53, 6-(4-chloro-3,5-dimethyl-1H-pyrazol-1-yl)-N-(4-chloro-1-methyl-5-phenyl-1H-pyrazol-3-yl)pyrimidin-4-amine] showed a pIC50 of 7.95. With `COC(C)c1c(C)nn(-c2cc(Nc3c(C)c(-c4ccc(C#N)cc4)nn3C)ncn2)c1C` (racemic) [Example 338, (±)-4-{5-[(6-{4-[1-methoxyethyl]-3,5-dimethyl-1H-pyrazol-1-yl}pyrimidin-4-yl)amino]-1,4-dimethyl-1H-pyrazol-3-yl}benzonitrile], the pIC50 is 8.15. `CCc1c(Nc2cc(-n3cc(C(F)(F)F)cn3)ncn2)nn(C)c1-c1ccc(F)cc1` [Example 250, N-[4-ethyl-5-(4-fluorophenyl)-1-methyl-1H-pyrazol-3-yl]-6-[4-(trifluoromethyl)-1H-pyrazol-1-yl]pyrimidin-4-amine]: the pIC50 was 7.68.

Take `CCc1c(Nc2cc(-n3nc(C)c4c3CCCC4(C)O)ncn2)nn(C)c1-c1ccc(F)cc1` (racemic) [Example 134, (±)-1-(6-{[4-ethyl-5-(4-fluorophenyl)-1-methyl-1H-pyrazol-3-yl]amino}pyrimidin-4-yl)-3,4-dimethyl-4,5,6,7-tetrahydro-1H-indazol-4-ol (Racemate)]: the pIC50 was 6.74.

For `Cc1nn(-c2cc(Nc3nn(C)c(-c4ccc(F)cc4)c3OC(F)F)ncn2)c(C)c1C(C)(C)O` [Example 500, 2-[1-(6-{[4-(difluoromethoxy)-5-(4-fluorophenyl)-1-methyl-1H-pyrazol-3-yl]amino}pyrimidin-4-yl)-3,5-dimethyl-1H-pyrazol-4-yl]propan-2-ol], the pIC50 is 7.28. To `Cc1c(-c2ccc(F)cc2)nn(CC2CC2)c1Nc1cc(-n2nc3c(c2C)C(C)(O)CC3)ncn1` (racemic) [Example 404, (±)-2-(6-{[1-(cyclopropylmethyl)-3-(4-fluorophenyl)-4-methyl-1H-pyrazol-5-yl]amino}pyrimidin-4-yl)-3,4-dimethyl-2,4,5,6-tetrahydrocyclopenta[c]pyrazol-4-ol] belongs 7.89. `Cc1c(-c2ccc(C#N)cc2)nn(C)c1Nc1cc(-n2[nH]c3c(c2=O)CCCC3)ncn1` [Example 472, 4-(1,4-dimethyl-5-{[6-(3-oxo-1,3,4,5,6,7-hexahydro-2H-indazol-2-yl)pyrimidin-4-yl]amino}-1H-pyrazol-3-yl)benzonitrile] showed a pIC50 of 6.06.
